Tests used:
Aβ(1-42) aggregate = biological target: T1, Aβ(1-42) aggregate (Homo sapiens, UniProt P05067); experiment: Binding inhibition experiment using Aβ(1-42) aggregate, Ki values (Example 2); conditions: compound numbers of Example 2; for Ki: radioactive ligand [^125I]CL-NMe2, mean ± standard error of 3 experiments (compound 4: 6 experiments), read-out: Ki values calculated by inhibition experiment; for binding affinity for the Aβ(1-42) aggregate: in words, derivatives with two substituents on Ring A
T1 construct: Amyloid β protein (Human, 1-42) [TFA form] was purchased from Peptide Institute, Inc; purchased Peptide Institute, Inc
T1 sequence (P05067 672-713 limits assumed): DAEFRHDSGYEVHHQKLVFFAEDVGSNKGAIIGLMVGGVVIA
Procedure: As a radioactive iodine-125 (^125I), Iodine-125 (3.7 GBq/mL) manufactured by MP Biomedicals, Inc. was used. Reverse phase HPLC was performed at a flow rate of 1.0 mL/min using a Cosmosil 5C18-AR-II column (4.6×150 mm) manufactured by Nacalai Tesque Inc. and ultrapure water:acetonitrile=3:7 as an elution solvent. ^1HNMR was measured using Varian Gemini 300 and tetramethylsilane as an internal standard substance. Mass spectrometry was performed using JEOL IMS-DX300. Preparative TLC was performed using 12 PLC plates 20×20-cm-Silica gel 60 F254, 2 mm manufactured by MERCK. Amyloid β protein (Human, 1-42) was purchased from Peptide Institute, Inc., and special grade reagents were used as other reagents.
Aβ(1-42) was dissolved in 10 mM phosphate buffer containing 1 mM EDTA (pH 7.4) at a concentration of 0.25 mg/mL, and the mixture was incubated at 37° C. for 42 h to prepare an Aβ(1-42) aggregate.
[…] of 10% EtOH solution, […] of a solution of [^125I]4-diethylamino-4′-iodochalcone ([^125I]CL-NMe2) in 10% ethanol, and […] of a sample solution at various concentrations (0 to 20 mM) were mixed, […] of an Aβ(1-42) aggregate solution was finally added, and the mixture was allowed to stand at room temperature for 3 h. Aβ(1-42) aggregate-bound compounds and nonbound compounds were separated with a Brandel M-24R cell harvester using a Whatman GF/B filter. Radioactivities remaining on the filter after filtration were measured with a γ-counter, and inhibition curves were created using Graph Pad Prism 4.0 to calculate inhibition constants (Ki values).

[1] = In-vivo radioactivity distribution experiment using normal mice (Example 2); conditions: normal mice, intravenous, Example 2 numbering
Procedure: Radioactive iodine labeling compounds were diluted with physiological saline containing 10% EtOH. To each of four or five 5-week-old male ddY mice (20 to 25 g) per group, […] of a labeled compound, [^125I]Compound 7, 10, 13, or 14 (0.2 to 0.4 mCi), was administered from the caudal vein. Animals were decapitated at 2, 10, 30, or 60 min, blood was collected, the major organs were isolated, and then weights and radioactivities thereof were measured.

In the case of `CN(C)c1ccc(C(=O)/C=C/c2ccc(I)cc2)cc1` [Compound 10 in Example 2, 4-iodo-4′-dimethylaminochalcone], the Ki (Aβ(1-42) aggregate) is reported as 13.3 ± 1.9 nM, the “In-vivo radioactivity distribution: blood” value ([1]; 2 min) is reported as 1.87 (0.23) percent of the dose/g and the “In-vivo radioactivity distribution: brain” value ([1]; 2 min) is reported as 2.77 (0.37) percent of the dose/g. The “In-vivo radioactivity distribution: heart” value ([1]; 2 min) was 5.23 (0.61) percent of the dose/g, the “In-vivo radioactivity distribution: intestine” value ([1]; 2 min) was 2.69 (0.43) percent of the dose/g and the “In-vivo radioactivity distribution: kidney” value ([1]; 2 min) was 6.30 (0.85) percent of the dose/g. For the same compound, the “In-vivo radioactivity distribution: liver” value ([1]; 2 min) was 13.99 (1.57) percent of the dose/g, the “In-vivo radioactivity distribution: lung” value ([1]; 2 min) was 6.02 (0.60) percent of the dose/g and the “In-vivo radioactivity distribution: pancreas” value ([1]; 2 min) was 3.85 (1.97) percent of the dose/g. For the same compound, the “In-vivo radioactivity distribution: spleen” value ([1]; 2 min) was 2.35 (0.35) percent of the dose/g, the “In-vivo radioactivity distribution: stomach” value ([1]; 2 min) was 0.76 (0.13) percent of the dose and the “In-vivo radioactivity distribution: blood” value ([1]; 10 min) was 1.89 (0.61) percent of the dose/g. For the same compound, the “In-vivo radioactivity distribution: brain” value ([1]; 10 min) was 2.04 (0.26) percent of the dose/g, the “In-vivo radioactivity distribution: heart” value ([1]; 10 min) was 2.05 (0.37) percent of the dose/g and the “In-vivo radioactivity distribution: intestine” value ([1]; 10 min) was 9.27 (1.36) percent of the dose/g. The “In-vivo radioactivity distribution: kidney” value ([1]; 10 min) was 4.51 (1.29) percent of the dose/g, the “In-vivo radioactivity distribution: liver” value ([1]; 10 min) was 10.29 (2.06) percent of the dose/g and the “In-vivo radioactivity distribution: lung” value ([1]; 10 min) was 3.92 (0.76) percent of the dose/g. For the same compound, the “In-vivo radioactivity distribution: pancreas” value ([1]; 10 min) was 2.12 (0.31) percent of the dose/g, the “In-vivo radioactivity distribution: spleen” value ([1]; 10 min) was 1.52 (0.19) percent of the dose/g and the “In-vivo radioactivity distribution: stomach” value ([1]; 10 min) was 0.89 (0.28) percent of the dose. The “In-vivo radioactivity distribution: blood” value ([1]; 30 min) was 1.51 (0.40) percent of the dose/g, the “In-vivo radioactivity distribution: brain” value ([1]; 30 min) was 0.63 (0.06) percent of the dose/g and the “In-vivo radioactivity distribution: heart” value ([1]; 30 min) was 1.10 (0.16) percent of the dose/g. The “In-vivo radioactivity distribution: intestine” value ([1]; 30 min) was 12.50 (2.49) percent of the dose/g, the “In-vivo radioactivity distribution: kidney” value ([1]; 30 min) was 4.10 (1.15) percent of the dose/g and the “In-vivo radioactivity distribution: liver” value ([1]; 30 min) was 6.69 (1.21) percent of the dose/g. For the same compound, the “In-vivo radioactivity distribution: lung” value ([1]; 30 min) was 1.95 (0.25) percent of the dose/g, the “In-vivo radioactivity distribution: pancreas” value ([1]; 30 min) was 0.85 (0.10) percent of the dose/g and the “In-vivo radioactivity distribution: spleen” value ([1]; 30 min) was 0.82 (0.15) percent of the dose/g. The “In-vivo radioactivity distribution: stomach” value ([1]; 30 min) was 0.73 (0.23) percent of the dose, the “In-vivo radioactivity distribution: blood” value ([1]; 60 min) was 1.38 (0.54) percent of the dose/g and the “In-vivo radioactivity distribution: brain” value ([1]; 60 min) was 0.42 (0.11) percent of the dose/g. For the same compound, the “In-vivo radioactivity distribution: heart” value ([1]; 60 min) was 0.84 (0.26) percent of the dose/g, the “In-vivo radioactivity distribution: intestine” value ([1]; 60 min) was 20.09 (5.48) percent of the dose/g and the “In-vivo radioactivity distribution: kidney” value ([1]; 60 min) was 4.59 (1.57) percent of the dose/g. The “In-vivo radioactivity distribution: liver” value ([1]; 60 min) was 7.06 (2.45) percent of the dose/g, the “In-vivo radioactivity distribution: lung” value ([1]; 60 min) was 1.71 (0.29) percent of the dose/g and the “In-vivo radioactivity distribution: pancreas” value ([1]; 60 min) was 0.84 (0.22) percent of the dose/g. The “In-vivo radioactivity distribution: spleen” value ([1]; 60 min) was 0.89 (0.12) percent of the dose/g and the “In-vivo radioactivity distribution: stomach” value ([1]; 60 min) was 2.17 (1.24) percent of the dose.

For `CN(C)c1ccc(C=CC(=O)c2ccc(I)s2)s1` [Compound 37 in Example 2, 3-(S-dimethylamino-2-thienyl)-1-(5-iodo-2-thienyl)-prop-2-en-1-one], the Ki (Aβ(1-42) aggregate) was 137 ± 3.4 nM.

For `Nc1ccc(/C=C/C(=O)c2ccc(I)cc2)c(N)c1` [Compound 39 in Example 2, 2,4-diamino-4′-iodochalcone], the “binding affinity for the Aβ(1-42) aggregate” value (“binding affinity” below) (Aβ(1-42) aggregate) was “no compound showed a high binding affinity”.

With `COc1cc(/C=C/C(=O)c2ccc(I)cc2)ccc1O` [Compound 40 in Example 2, 4-hydroxy-4′-iodo-3-methoxychalcone] the “binding affinity” value (Aβ(1-42) aggregate) was “no compound showed a high binding affinity” and the Ki (Aβ(1-42) aggregate) was 1160 ± 154 nM.

For `COc1ccc(/C=C/C(=O)c2ccc(I)cc2)cc1O` [Compound 41 in Example 2, 3-hydroxy-4′-iodo-4-methoxychalcone], the “binding affinity” value (Aβ(1-42) aggregate) was “no compound showed a high binding affinity” and the Ki (Aβ(1-42) aggregate) was 157 ± 80.8 nM.

In the case of `COc1ccc(/C=C/C(=O)c2ccc(I)cc2)cc1OC` [Compound 42 in Example 2, 3,4-dimethoxy-4′-iodochalcone], the “binding affinity” value (Aβ(1-42) aggregate) is reported as “no compound showed a high binding affinity” and the Ki (Aβ(1-42) aggregate) is reported as 223 ± 76.1 nM.

`Nc1ccc(C(=O)C=Cc2ccc(Br)s2)cc1` [Compound 44 in Example 2, 3-(5-bromo-2-thienyl)-1-(4-aminophenyl)-prop-2-en-1-one] showed a Ki (Aβ(1-42) aggregate) of 476 ± 47.9 nM.

Work on `CNc1ccc(C(=O)C=Cc2ccc(Br)s2)cc1` [Compound 45 in Example 2, 3-(5-bromo-2-thienyl)-1-(4-methylaminophenyl)-prop-2-en-1-one] yielded a Ki (Aβ(1-42) aggregate) of 198 ± 48.6 nM.

`CN(C)c1ccc(C(=O)C=Cc2ccc(Br)s2)cc1` [Compound 46 in Example 2, 3-(5-bromo-2-thienyl)-1-(4-dimethylaminophenyl)-prop-2-en-1-one] showed a Ki (Aβ(1-42) aggregate) of 106 ± 7.1 nM.

Reference: patent US20100278733A1, “COMPOSITION FOR DIAGNOSIS OF AMYLOID-RELATED DISEASE” (priority 2007, published 2010)
